# Results as given in ChEMBL document CHEMBL1201862, “PubChem BioAssay data set” (2004).
#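 In this assay, cells in 96-well plates receive the compound at five concentrations for 48 hours. Endpoints are linearly interpolated between the surrounding concentrations. The concentration for 50% growth inhibition is given as GI50.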 Calls of active or inactive are those of the source. Cut-off read from the data, not from the text of the source: active = GI50 up to about 1.1 µM and inactive = higher.
# Key:
# Experiment in all cases: inhibition of tumour cell growth, NCI panel, 48 h
# [1] = tested on: HL-60
# [2] = tested on: CAKI-1
# [3] = tested on: SN12C
# [4] = tested on: HCT-116
# [5] = tested on: M14
# [6] = tested on: MDA-MB-231
# [7] = tested on: MOLT-4
# [8] = tested on: NCI-H460
# [9] = tested on: SW-620
# [10] = tested on: SK-OV-3
# [11] = tested on: SF-295
# [12] = tested on: OVCAR-5
# [13] = tested on: EKVX
# [14] = tested on: HT-29
# [15] = tested on: HCC 2998
# [16] = tested on: Malme-3M
# [17] = tested on: HCT-15
# [18] = tested on: SNB-75
# [19] = tested on: BT-549
# [20] = tested on: MCF7
Compound,GI50 [1],GI50 [2],GI50 [3],GI50 [4],GI50 [5],GI50 [6],GI50 [7],GI50 [8],GI50 [9],GI50 [10],GI50 [11],GI50 [12],GI50 [13],GI50 [14],GI50 [15],GI50 [16],GI50 [17],GI50 [18],GI50 [19],GI50 [20]
CCNC(=O)NNc1ncnc2c1c(-c1ccc(Cl)cc1)cn2-c1ccc(C)cc1,16 µM (inactive),25.4 µM (inactive),16.5 µM (inactive),14.9 µM (inactive),17.7 µM (inactive),19.6 µM (inactive),16.4 µM (inactive),22.4 µM (inactive),21.2 µM (inactive),27.4 µM (inactive),15.7 µM (inactive),18 µM (inactive),20.2 µM (inactive),18.3 µM (inactive),17.5 µM (inactive),18.8 µM (inactive),20.5 µM,16.7 µM (inactive),–,–
CCOC(=O)C(NC(=O)Nc1ccc(Cl)cc1)(OC)C(F)(F)F (stereo not drawn),9.68 µM (inactive),74.3 µM (inactive),41 µM (inactive),1.94 µM (inactive),8.24 µM (inactive),–,–,–,64.4 µM (inactive),> 100 µM (inactive),–,21.5 µM (inactive),56.5 µM (inactive),> 100 µM (inactive),7.45 µM (inactive),–,0.248 µM,> 100 µM (inactive),> 100 µM (inactive),–
O=C(O)CCCCCO,> 100 µM (inactive),> 100 µM (inactive),> 100 µM (inactive),> 100 µM (inactive),> 100 µM (inactive),–,> 100 µM (inactive),> 100 µM (inactive),> 100 µM (inactive),> 100 µM (inactive),> 100 µM (inactive),> 100 µM (inactive),> 100 µM (inactive),> 100 µM (inactive),> 100 µM (inactive),> 100 µM (inactive),> 100 µM,> 100 µM (inactive),–,–
CCOC(=O)/C(=C/c1cccc(Cl)c1)N(CC)CC,49.2 µM (inactive),50.5 µM (inactive),45.9 µM (inactive),37.4 µM (inactive),64.3 µM (inactive),–,87.7 µM (inactive),46.5 µM (inactive),59 µM (inactive),35.1 µM (inactive),46.3 µM (inactive),> 100 µM (inactive),55.7 µM (inactive),> 100 µM (inactive),79.1 µM (inactive),57.3 µM (inactive),38.7 µM,70.5 µM (inactive),–,–
CC(=O)C1C(=O)C(=O)N(c2ccccc2C(C)C)C1=O (stereo not drawn),> 100 µM (inactive),> 100 µM (inactive),> 100 µM (inactive),> 100 µM (inactive),> 100 µM (inactive),–,> 100 µM (inactive),> 100 µM (inactive),> 100 µM (inactive),> 100 µM (inactive),> 100 µM (inactive),> 100 µM (inactive),> 100 µM (inactive),> 100 µM (inactive),> 100 µM (inactive),> 100 µM (inactive),> 100 µM,> 100 µM (inactive),–,–
O=S(=O)(C/C(=N\O)c1ccccc1)c1ccccc1,> 100 µM (inactive),> 100 µM (inactive),> 100 µM (inactive),> 100 µM (inactive),> 100 µM (inactive),–,> 100 µM (inactive),> 100 µM (inactive),> 100 µM (inactive),> 100 µM (inactive),> 100 µM (inactive),> 100 µM (inactive),> 100 µM (inactive),> 100 µM (inactive),> 100 µM (inactive),> 100 µM (inactive),> 100 µM,> 100 µM (inactive),–,–
N#C/C(C(=O)Nc1ccccc1)=C(/N)N1CCCCC1,–,> 100 µM (inactive),> 100 µM (inactive),> 100 µM (inactive),91 µM (inactive),–,> 100 µM (inactive),> 100 µM (inactive),> 100 µM (inactive),> 100 µM (inactive),> 100 µM (inactive),> 100 µM (inactive),98.4 µM (inactive),> 100 µM (inactive),> 100 µM (inactive),–,> 100 µM,> 100 µM (inactive),> 100 µM (inactive),> 100 µM (inactive)
CCCCN1/C(=N/Nc2n[nH]c(=O)c3ccccc23)SCC1c1ccc(Cl)cc1 (stereo not drawn),14.9 µM (inactive),20.3 µM (inactive),24.6 µM (inactive),13.9 µM (inactive),5.55 µM (inactive),20.6 µM (inactive),–,3.59 µM (inactive),19.8 µM (inactive),21.8 µM (inactive),6.53 µM (inactive),29.1 µM (inactive),4.27 µM (inactive),24.2 µM (inactive),–,22 µM (inactive),6.52 µM,18.6 µM (inactive),–,10.6 µM (inactive)
O=C(NNc1nc(-c2ccccc2)cs1)C(F)(F)F,33.1 µM (inactive),45.8 µM (inactive),75.7 µM (inactive),47.3 µM (inactive),57.1 µM (inactive),68.7 µM (inactive),20 µM (inactive),63.5 µM (inactive),34.4 µM (inactive),61.1 µM (inactive),29.5 µM (inactive),> 100 µM (inactive),98.9 µM (inactive),47.2 µM (inactive),95.1 µM (inactive),53.7 µM (inactive),57.3 µM,19 µM (inactive),–,> 100 µM (inactive)
